Assays:
U87‐Luc xenografts = experiment: U87-luciferase intracranial xenograft, in vivo bioluminescent imaging; parameters: species or system athymic BALB/c nude mice; settings: 50 mg·kg^−1 p.o. once a day for 14 days, from 16 days after implantation; n = 5 mice per group
Procedure: The athymic BALB/c nude mice were anaesthetized by subjecting them to 3% isoflurane (RWD Life Science, Shenzhen, China) in a mixture of 30% O2 and 70% N2O. […] The mouse head was maintained within a stereotactic frame (RWD Life Science), allowing a precise and reproducible injection. The coordinate of the injection site was 0.5 mm anterior and 2.5 mm right from the bregma and at a depth of 3 mm. U87-Luc cells (COBIOER) were assessed by the trypan blue exclusion assay. Only cell suspensions with greater than 95% viability were used and implanted into the right striatum of nude mice. U87-Luc cells (5 × 10^5 in 5-μl PBS) were inoculated into the right striatum of each mouse at a controlled flow rate of 0.5 μl·min^-1, and the total injection volume was about 5 μl. […] Tumours were measured by bioluminescence using an IVIS Spectrum CT Imaging System (PerkinElmer, Waltham, MA, USA), which captured the luminescence signal emitted from the engrafted tumour. […] Signal intensity was quantified within a region of interested over the head, as defined by Living Image software. All images represent 2-min exposure time, and the average number of photons·s^-1·cm^-2 per steradian were recorded. The data were analysed using Living Image 4.4.5 software (PerkinElmer, RRID:SCR_014247).

ERK = experiment: Western blot of phosphorylated and total ERK in U87 cells; type: cell-based, Human; settings: 25 μM, 10, 30, 60 and 90 min
Procedure: (§1) The total protein concentration of each sample was determined using the BCA Protein Assay Kit (Sangon Biotech, Shanghai, China). Equal protein extracts (45‐μg protein per lane) were separated by SDS‐PAGE and electrophoretically transferred to PVDF membranes (Millipore, Bedford, MA, USA). Then, the membranes were incubated with anti‐phosphorylated and total http://www.guidetopharmacology.org/GRAC/FamilyDisplayForward?familyId=514, http://www.guidetopharmacology.org/GRAC/FamilyDisplayForward?familyId=518, and http://www.guidetopharmacology.org/GRAC/FamilyDisplayForward?familyId=519 antibodies (1:1,000; Cell Signaling Technology) at 4°C overnight, followed by incubation with IRDye 680LT fluorescent secondary antibody (LI‐COR Biosciences, Lincoln, NE, USA). Proteins were visualized using the Odyssey Fc Imaging System (LI‐COR Biosciences, Lincoln, NE, USA). Mouse α‐tubulin antibody was used as protein loading controls. The immuno‐related procedures used comply with the recommendations made by the British Journal of Pharmacology (Alexander et al., 2018).

p38‐MAPK = experiment: Western blot of phosphorylated and total p38-MAPK in U87 cells; type: cell-based, Human; settings: 25 μM, 10, 30, 60 and 90 min
Procedure: as §1, with “After treatment with bepridil for 0, 30, 60, and 90 min, cells were collected and lysed in RIPA buffer (Beyotime, Nanjing, China) supplemented with protease inhibitor (Beyotime). The total” for “The total”

Question: Which results are given for `CC(C)COCC(CN(Cc1ccccc1)c1ccccc1)N1CCCC1` (stereo not drawn) [Bepridil, N‐benzyl‐N‐(3‐isobutoxy‐2‐pyrrolidin‐1‐yl‐propyl)aniline]?
Answer: Growth of brain-grafted U87-Luc tumour (bioluminescence) (U87‐Luc xenografts): successfully restrained tumour growth; Effect on ERK activity (ERK): not affected; Effect on p38-MAPK activity (p38‐MAPK): activated
